According to patent US4692443A, “3-bicyclicpyridinium-methyl cephalosporins” (Eli Lilly and Company, priority 1984, dated 1987):
In brackets after ≈: the same amount, converted by molar mass.

What was measured:
Assay type in all cases: cell-based
[1] = test system: Staph. aureus X1.1; assay: standard in vitro agar dilution assay (MIC); conditions: Staphylococcus aureus; Staph. aureus strain X1.1; read-out: Agar Dilution MIC
[2] = test system: Klebsiella KAE; assay: standard in vitro agar dilution assay (MIC); conditions: Klebsiella strain KAE; read-out: Agar Dilution MIC
[3] = test system: Strep. A C203; assay: standard in vitro agar dilution assay (MIC); conditions: Strep. A strain C203
[4] = test system: Staph. aureus X400; assay: standard in vitro agar dilution assay (MIC); conditions: Staphylococcus aureus; Staph. aureus strain X400
[5] = test system: Strep. D X66; assay: standard in vitro agar dilution assay (MIC); conditions: Strep. D strain X66
[6] = test system: Strep. D 9960; assay: standard in vitro agar dilution assay (MIC); conditions: Strep. D strain 9960
[7] = test system: Staph. epi 222; assay: standard in vitro agar dilution assay (MIC); conditions: Staph. epi strain 222
[8] = test system: Staph. aureus V41; assay: standard in vitro agar dilution assay (MIC); conditions: Staphylococcus aureus; Staph. aureus strain V41; read-out: Agar Dilution MIC
[9] = test system: E. coli TEM; assay: standard in vitro agar dilution assay (MIC); conditions: Escherichia coli; E. coli strain TEM; read-out: Agar Dilution MIC
[10] = test system: H. influ. 76; assay: standard in vitro agar dilution assay (MIC); conditions: H. influ. strain 76; read-out: Agar Dilution MIC
[11] = test system: Enterobacter aerogenes C32; assay: standard in vitro agar dilution assay (MIC); conditions: Klebsiella aerogenes; Enterobacter aerogenes strain C32; read-out: Agar Dilution MIC
[12] = test system: Staph. aureus S13E; assay: microbe, parasite or virus in culture; conditions: Staphylococcus aureus, read-out: Agar Dilution MIC
[13] = test system: Strep. PN PARK; assay: standard in vitro agar dilution assay (MIC); conditions: Strep. PN strain PARK
[14] = test system: Staph. epi EPI1; assay: standard in vitro agar dilution assay (MIC); conditions: Staph. epi strain EPI1
[15] = test system: Klebsiella X68; assay: standard in vitro agar dilution assay (MIC); conditions: Klebsiella strain X68; read-out: Agar Dilution MIC
[16] = test system: H. influ. C.L.; assay: standard in vitro agar dilution assay (MIC); conditions: H. influ. strain C.L.; read-out: Agar Dilution MIC
[17] = test system: E. coli N10; assay: standard in vitro agar dilution assay (MIC); conditions: Escherichia coli; E. coli strain N10; read-out: Agar Dilution MIC
[18] = test system: E. coli EC14; assay: standard in vitro agar dilution assay (MIC); conditions: Escherichia coli; E. coli strain EC14; read-out: Agar Dilution MIC
[19] = test system: Klebsiella X26; assay: standard in vitro agar dilution assay (MIC); conditions: Klebsiella strain X26; read-out: Agar Dilution MIC
[20] = test system: Pseudomonas X239; assay: standard in vitro agar dilution assay (MIC); conditions: Pseudomonas strain X239
[21] = test system: Pseudomonas X528; assay: standard in vitro agar dilution assay (MIC); conditions: Pseudomonas strain X528
Text: The antibacterial activity of several representative compounds of the invention has been evaluated in standard in vitro agar dilution assays. The following Table presents typical minimum inhibitory concentrations (MIC's) in μg /ml for exemplary compounds when evaluated against typical Gram + and Gram - microorganism.

[22] = test system: Salmonella X514; assay: standard in vitro agar dilution assay (MIC); conditions: Salmonella strain X514; read-out: Agar Dilution MIC
[23] = test system: Serratia X99; assay: standard in vitro agar dilution assay (MIC); conditions: Serratia strain X99; read-out: Agar Dilution MIC

SMILES | MIC [1] | MIC [2] | MIC [3] | MIC [4] | MIC [5] | MIC [6] | MIC [7] | MIC [8] | MIC [9] | MIC [10] | MIC [11] | MIC [12] | MIC [13] | MIC [14] | MIC [15] | MIC [17] | MIC [18] | MIC [19] | MIC [20] | MIC [21] | also measured
CO/N=C(\C(=O)NC1C(=O)N2C(C(=O)[O-])=C(C[n+]3ccc4sc(C)nc4c3)CSC12)c1csc(N)n1 (stereo not shown) [Example 13] | 1 µg/mL (≈ 1.83 µM) | 2 µg/mL (≈ 3.67 µM) | 0.015 µg/mL (≈ 0.0275 µM) | 32 µg/mL (≈ 58.6 µM) | > 128 µg/mL | 8 µg/mL (≈ 14.7 µM) | 1 µg/mL (≈ 1.83 µM) | 8 µg/mL (≈ 14.7 µM) | 0.015 µg/mL (≈ 0.0275 µM) | 0.03 µg/mL (≈ 0.055 µM) | 0.03 µg/mL (≈ 0.055 µM) | 8 µg/mL (≈ 14.7 µM) | < 0.008 µg/mL | 2 µg/mL (≈ 3.67 µM) | 0.03 µg/mL (≈ 0.055 µM) | 0.03 µg/mL (≈ 0.055 µM) | 0.015 µg/mL (≈ 0.0275 µM) | 0.015 µg/mL (≈ 0.0275 µM) | 8 µg/mL (≈ 14.7 µM) | 2 µg/mL (≈ 3.67 µM) | MIC [16]: 0.03 µg/mL (≈ 0.055 µM)
CO/N=C(\C(=O)NC1C(=O)N2C(C(=O)[O-])=C(C[n+]3ccc4ncn(C)c4c3)CSC12)c1csc(N)n1 (stereo not drawn) [Example 3, syn-7-[2-(2-Aminothiazol-4-yl)-2-methoxyiminoacetamido]-3-(3-methyl-3H-imidazolo[4,5-c]pyridinium-5-ylmethyl)-3-cephem-4-carboxylate] | 1 µg/mL (≈ 1.89 µM) | 4 µg/mL (≈ 7.57 µM) | < 0.008 µg/mL | 64 µg/mL (≈ 121 µM) | > 128 µg/mL | 4 µg/mL (≈ 7.57 µM) | 1 µg/mL (≈ 1.89 µM) | 4 µg/mL (≈ 7.57 µM) | < 0.008 µg/mL |  |  | 4 µg/mL (≈ 7.57 µM) | < 0.008 µg/mL | 2 µg/mL (≈ 3.78 µM) | 0.03 µg/mL (≈ 0.0568 µM) |  | < 0.008 µg/mL | < 0.008 µg/mL | 2 µg/mL (≈ 3.78 µM) | 1 µg/mL (≈ 1.89 µM) | MIC [22]: < 0.008 µg/mL
CO/N=C(\C(=O)NC1C(=O)N2C(C(=O)[O-])=C(C[n+]3ccc4[nH]c(C)nc4c3)CSC12)c1csc(N)n1 (stereo not drawn) [Example 5, syn-7-[2-(2-aminothiazol-4-yl)-2-methoxyiminoacetamido]-3-(2-methyl-1H-imidazolo[4,5-c]pyridinium-5-ylmethyl)-3-cephem-4-carboxylate] | 2 µg/mL (≈ 3.78 µM) | 2 µg/mL (≈ 3.78 µM) | < 0.008 µg/mL | 32 µg/mL (≈ 60.5 µM) | > 128 µg/mL | 8 µg/mL (≈ 15.1 µM) | 1 µg/mL (≈ 1.89 µM) | 8 µg/mL (≈ 15.1 µM) | < 0.008 µg/mL | 0.015 µg/mL (≈ 0.0284 µM) | 0.03 µg/mL (≈ 0.0568 µM) | 8 µg/mL (≈ 15.1 µM) | < 0.008 µg/mL | 4 µg/mL (≈ 7.57 µM) | 0.015 µg/mL (≈ 0.0284 µM) | 0.03 µg/mL (≈ 0.0568 µM) | < 0.008 µg/mL | < 0.008 µg/mL | 2 µg/mL (≈ 3.78 µM) | 2 µg/mL (≈ 3.78 µM) | MIC [23]: 0.03 µg/mL (≈ 0.0568 µM); MIC [16]: 0.015 µg/mL (≈ 0.0284 µM); MIC [22]: < 0.008 µg/mL
CO/N=C(\C(=O)NC1C(=O)N2C(C(=O)[O-])=C(C[n+]3ccc4scnc4c3)CSC12)c1csc(N)n1 (stereo not drawn) [Example 12, syn-7-[2-(2-aminothiazol-4-yl)-2-methoxyiminoacetamido]-3-(thiazolo[4,5-c]pyridinium-5-ylmethyl)-3-cephem-4-carboxylate] | 1 µg/mL (≈ 1.88 µM) | 4 µg/mL (≈ 7.52 µM) | 0.015 µg/mL (≈ 0.0282 µM) | 2 µg/mL (≈ 3.76 µM) | 128 µg/mL (≈ 241 µM) | 4 µg/mL (≈ 7.52 µM) |  | 2 µg/mL (≈ 3.76 µM) |  |  | 0.03 µg/mL (≈ 0.0564 µM) | 8 µg/mL (≈ 15 µM) | 0.015 µg/mL (≈ 0.0282 µM) | 2 µg/mL (≈ 3.76 µM) | 0.03 µg/mL (≈ 0.0564 µM) | 0.03 µg/mL (≈ 0.0564 µM) | 0.015 µg/mL (≈ 0.0282 µM) | 0.015 µg/mL (≈ 0.0282 µM) | 2 µg/mL (≈ 3.76 µM) | 1 µg/mL (≈ 1.88 µM) | MIC [22]: 0.03 µg/mL (≈ 0.0564 µM)
CO/N=C(\C(=O)NC1C(=O)N2C(C(=O)[O-])=C(C[n+]3ccc4nc(C)n(C)c4c3)CSC12)c1csc(N)n1 (stereo not drawn) [Example 7, syn-7-[2-(2-aminothiazol-4-yl)-2-methoxyiminoacetamido]-3-(2,3-dimethyl-3H-imidazolo[4,5-c]pyridinium-5-ylmethyl)-3-cephem-4-carboxylate] | 2 µg/mL (≈ 3.69 µM) | 2 µg/mL (≈ 3.69 µM) | 0.015 µg/mL (≈ 0.0276 µM) | 128 µg/mL (≈ 236 µM) | > 128 µg/mL | 4 µg/mL (≈ 7.37 µM) | 2 µg/mL (≈ 3.69 µM) |  | 0.015 µg/mL (≈ 0.0276 µM) | 0.03 µg/mL (≈ 0.0553 µM) |  |  |  | 4 µg/mL (≈ 7.37 µM) | 0.03 µg/mL (≈ 0.0553 µM) | 0.03 µg/mL (≈ 0.0553 µM) | 0.015 µg/mL (≈ 0.0276 µM) | 0.015 µg/mL (≈ 0.0276 µM) |  |  | 
